# Assay results as given in PMC12020424, “Identification and Validation of Cyclic Peptides with Mucin-Selective, Location-Specific Binding in the Gastrointestinal Tract” (ACS Nano, 2025).
# Bridge positions count the residues as written; N and C are the ends. Ends that are not written are not given here.
# Assays:
# [1] = target: MUC2 (Homo sapiens, UniProt Q02817); test: Phage ELISA on MUC2; type: binding; conditions: phage clones displaying the peptide, 10^7 PFU/μL, MUC2-coated plate, anti-M13/HRP, TMB, 450 nm, blank subtracted, three wells; vs random library and insertless phage
# Source text: We next sought to validate the binding efficiency of these identified phage clones. We tested phage clones displaying peptides M2.1, M2.2, M2.3, and M2.4 for binding to MUC2, and phage clones displaying peptides M5.1, M5.2, M5.3, and M5.4 for binding to MUC5AC. We utilized a bacteriophage enzyme-linked immunosorbent assay to test the binding of the peptide hits to the specific target mucins, MUC2 and MUC5AC (Figure 2d). The spectrophotometer reported absorbance values at 450 nm. The intensity of the absorbance signal is proportional to the amount of peptide-mucin binding present in each sample. The negative controls (library samples and insertless samples) served as references for nonspecific binding.
# First, mucin was coated onto the surface of a plastic plate overnight using the same process as that performed for the original phage display. The next morning, three wells of each phage clone were prepared, with each phage solution having a titer of 10^7 PFU/μL to ensure a fair comparison between the clones. […]
# However, instead of eluting the bound phage, 100 μL of 1:2000 anti-M13/HRP mouse monoclonal antibody was added to each well, and the antibody was allowed to incubate with the wells for 30 min. […] The resulting solutions were analyzed by absorbance spectroscopy at a wavelength of 450 nm to determine the relative amount of phage present in each well.
# [2] = tested on: MUC2-containing intestinal tissue (jejunal); test: Ex vivo fluorescent binding to small intestine tissue; parameters: species or system porcine; conditions: MUC2-selective peptides to small intestine; for Overall nanoparticle “score”: scaled between free AF647 (0) and WGA-AF647 (1), mean across trials n = 3; for Selectivity: score for MUC2 tissue / sum of scores for all mucins, n = 3
# Source text: After identifying the peptide hits for each mucin, we tested their binding in an ex vivo setting (Figure S1), evaluating their interaction with mucin-containing porcine tissue and semiquantitatively representing it through fluorescent imaging (Figure 3a). The cyclic peptides were synthesized and conjugated to a fluorophore, Alexa Fluor 647 (AF647), at the N-terminus to allow fluorescent imaging to be used to semiquantitatively measure the peptides’ ex vivo tissue binding, compared to free AF647 and AF647 conjugated to wheat germ agglutinin (WGA), a known lectin for glycoproteins.[40] […] Porcine GI tissue was used due to its similarity in mucin expression compared to human GI tissue and its capacity to source large surface areas of tissue for experiments.[41],[42] Representative IVIS images are shown in Figure 3b-e, where the first four columns represent the four identified peptides (M2.1–M2.4 in Figure 3b,c, M5.1–M5.4 in Figure 3d,e), the fifth column represents WGA-AF647, and the sixth column represents AF647. The “score” results for the peptide ligands are presented in Figure 3f,g for the mucins of interest, with Tables S2–S5 and Figure S3 detailing results for the other tissues (the equation for calculating the “score” is found in the Materials and Methodssection). […] We also examined selectivity by incubating peptides on nontarget tissues. Figure 3h,i depicts the “selectivity” results for the MUC2-selective and MUC5AC-selective peptides, respectively. Selectivity was calculated by determining the ratio of the “score” for a particular mucin to the sum of the “scores” for all mucins (see the Materials and Methods section for the equation used).
# The top-performing hits from phage display were tested on ex vivo segments of porcine mucin-containing tissues (jejunal, stomach, and esophageal tissues) obtained from local abattoirs or laboratory-maintained pigs. Tissue was used either immediately after acquisition or after storage at −80 °C; tissue was used at most 1 week after acquisition and storage at −80 °C. After acquisition and equilibration to room temperature, the tissue was washed twice with 25 mL (each) of cold 1× PBS to remove undigested food and other debris. After washing and cleaning, the tissue was mounted between two magnetic plates with holes corresponding to a 48-well plate, as previously described,[72] such that the luminal side of the tissue was facing up (Figure S1). After the tissue was mounted, the amount of peptide/protein corresponding to 40 μg of AF647 was suspended in 200 μL of 1× PBS and added to the wells created by the magnetic plates. This was done 3× for each formulation to perform the experiment in triplicate. In addition, plain 1× PBS was added to one well to serve as the background measurement. After the peptides were added, the plate setup was covered with aluminum foil and allowed to incubate for 1 h at room temperature with gentle agitation (50 rpm). After incubation, the nonbinding peptides were removed by pouring out the solutions onto a clean paper towel, and the setup was washed three times by adding 200 μL of 1× PBS to each well and gently agitating the setup for 30 s before removing the washing solution. After washing was complete, fluorescence imaging was performed using an IVIS Spectrum fluorescent imaging system (PerkinElmer), with an automatically calculated exposure time (usually ∼1 s), a 20 cm × 20 cm field of view, and an excitation/emission of 640/680 nm, respectively. The imaging results were analyzed using Living Image software to calculate the total fluorescence intensity for each well, and the results for each hit or control were averaged across different wells. The negative control used was unconjugated AF647, while the positive control was WGA-AF647, since WGA is a known lectin that binds glycoproteins.
# To better account for tissue-to-tissue variability, the results for each trial were reported as scores rather than using the raw fluorescence intensity. […]
Overall nanoparticle “score” [2],Selectivity [2],Sequence,phage ELISA absorbance vs negative controls [1]
0.550,0.298,"CAKHRIMLC (disulfide 1-9 (inferred)) [Peptide M2.1, CX7C cyclic peptide hit for MUC2; AF647 conjugated at N-terminus in ex vivo tests]",significantly higher absorbances than the two negative controls
0.243,0.396,"CTDKASSSC (disulfide 1-9 (inferred)) [Peptide M2.2, CX7C cyclic peptide hit for MUC2]",significantly higher absorbances than the two negative controls
